Experimental data taken from article PMC2112634 (The Journal of Cell Biology, 1983).
Like-named read-outs stand apart in the source and are kept apart here.

Experiments:
[1] = target: T1, CCK-binding site (Mr 85,000 protein) of rat pancreatic plasma membranes (Rattus norvegicus, UniProt P30551); assay: Affinity labeling; settings: micromolar concentrations of competitor; unpublished results
T1 sequence (P30551 1-444): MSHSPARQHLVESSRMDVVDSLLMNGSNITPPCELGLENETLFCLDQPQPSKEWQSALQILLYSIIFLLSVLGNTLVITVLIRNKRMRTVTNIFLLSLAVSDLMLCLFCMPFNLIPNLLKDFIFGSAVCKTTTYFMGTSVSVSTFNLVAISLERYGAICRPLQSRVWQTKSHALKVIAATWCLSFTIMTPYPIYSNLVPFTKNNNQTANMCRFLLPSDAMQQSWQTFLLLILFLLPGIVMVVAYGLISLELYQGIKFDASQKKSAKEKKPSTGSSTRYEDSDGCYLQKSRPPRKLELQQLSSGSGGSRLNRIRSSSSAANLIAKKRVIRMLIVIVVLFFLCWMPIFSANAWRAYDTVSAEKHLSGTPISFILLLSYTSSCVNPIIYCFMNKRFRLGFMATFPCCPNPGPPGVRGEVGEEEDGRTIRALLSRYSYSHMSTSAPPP

[2] = system: CCK-binding sites on rat pancreatic acinar cells; assay: Light microscopic autoradiography of pancreatic acini; type: cell-based; settings: ~0.1 nM 125I-CCK-33, 15 min at 37C; Fig. 2a; similar results at 2 min
[3] = target: T2, CCK-binding sites on rat pancreatic plasma membranes (Rattus norvegicus, UniProt P30551); assay: Competitive inhibition of 125I-CCK-33 binding to pancreatic plasma membranes
T2 sequence (P30551 1-444): T1 sequence (P30551 1-444)

[4] = system: rabbit anti-CCK IgG (antiserum No. L-48); assay: Affinity labeling of anti-CCK antibodies; type: binding; settings: 0.07 nM 125I-CCK-33, 24 h at 4C, 1 mM DSS; Fig. 1 lane a
[5] = 125I-labeled Bolton-Hunter reagent; cited from earlier work
[6] = system: CCK-binding sites on rat pancreatic acinar cells; type: cell-based
[7] = system: CCK-binding sites of rat pancreatic plasma membranes; settings: ultraviolet irradiation cross-linking; cited from earlier work
[8] = system: CCK receptors of mouse pancreatic acini; settings: electron microscopic autoradiography; cited from earlier work
[9] = system: CCK receptor in rat pancreatic acini; settings: rat pancreatic acinar cell; cited from earlier work
[10] = 0.1 nM 125I-CCK-33, 2 or 15 min, 37C, % of total grains
[11] = 2 min, 37C, 0.1 nM 125I-CCK-33, mean ± SEM, 17 micrographs, Table I
[12] = 15 min, 37C, 0.1 nM 125I-CCK-33, mean ± SEM, 18 micrographs, Table I

Molecule: insulin: polypeptide hormone tested at micromolar concentration as specificity control
- effect on labeling of membrane proteins by 125I-CCK-33 [1]: unaffected

Molecule: 125I-CCK-33: CCK-33 acylated with 125I-labeled Bolton-Hunter reagent (KAPSGRVSMIKNLQSLDPSHRISDRDYMGWMDF; Cholecystokinin-33 125I-Bolton-Hunter labeled; UniProt P01356 70-102, looked up)
- distribution of autoradiographic grains (light microscopy) [2]: primarily delineated the basal and lateral boundaries of the acinar cells
- peptide released from binding sites during cross-linking and subsequent washing [3]: < 5%
- labeling of heavy and light chains of anti-CCK IgG [4]: labeling of the heavy and light chains of anti-CCK IgG was obtained
- secretagogue activity after Bolton-Hunter acylation [5]: retention of secretagogue activity
- grains over cytoplasm (summary) [6, 10]: ~ 30%
- grains over embedding medium (summary) [6, 10]: 5- 8%
- grains over nucleus (summary) [6, 10]: 1-2%
- grains within 1 HD of the lateral and basal plasmalemma [6, 10]: approximately 60%
- Basal PM grain density [6, 11]: 2.57 0.08 grains/µm2
- Cytoplasm, % total grains [6, 11]: 34.0 ± 1.3 % total grains
- Lateral PM grain density [6, 11]: 1.10 0.05 grains/µm2
- Lateral PM, % total grains [6, 11]: 12.1 ± 0.4 % total grains
- distribution of grains at 4C ([6]; 2 min or 15 min at 4C, data not shown, compared with 37C): Qualitatively similar results
- relative grain density over cytoplasm or nucleus compared to embedding medium ([6]; 15 min, 37C): no statistically significant increase
- Apical PM grain density [6, 12]: 0.11 ± 0.02 grains/µm2
- Apical PM, % total grains [6, 12]: 0.1 % total grains
- Basal PM grain density [6, 12]: 2.46 0.11 grains/µm2
- Basal PM, % total grains [6, 12]: 34.8 0.6 % total grains
- Cytoplasm, % total grains [6, 12]: 30.0 ± 0.8 % total grains
- Embedding medium, % total grains [6, 12]: 8.1 0.6 % total grains
- Lateral PM grain density [6, 12]: 2.32 0.07 grains/µm2
- Lateral PM, % total grains [6, 12]: 25.5 ± 0.6 % total grains
- specific binding sites on centroacinar or ductular cells ([6]; autoradiography, 125I-CCK-33): no apparent specific
- relative grain density over cytoplasm and nucleus (summary) ([6]; either time point, 37C): never exceeded unity

Molecule: secretin: peptide tested at micromolar concentration as specificity control
- effect on labeling of membrane proteins by 125I-CCK-33 [1]: unaffected

B1: cholecystokinin (peptide, UniProt P06307 21-115, looked up)
Cholecystokinin: QPVPPADPAGSGLQRAEEAPRRQLRVSQRTDGESRAHLGALLARYIQQARKAPSGRMSIVKNLQNLDPSHRISDRDYMGWMDFGRRSAEEYEYPS
modifications: Cholecystokinin
- Mr of specifically labeled polypeptide [7]: 76,000
- localization of CCK receptors [8]: localized to the basolateral plasmalemma of mouse pancreatic acini
- high affinity binding sites per cell [9]: approximately 650 binding sites per cell
- low affinity binding sites per cell [9]: ~100,000 binding sites per cell
